Reference: PubChem BioAssay (NCI)
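Five concentrations, 48 hours, 96-well plates. The concentration for 50% growth inhibition is given as GI50. TGI denotes the concentration required for complete inhibition of growth.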

Key:
Assay in all cases: growth of human tumour cells (NCI), 48 h
NCI/ADR-RES ovarian = system: NCI/ADR-RES ovarian
HOP-92 NSCLC = system: HOP-92 NSCLC
HCC-2998 colon = system: HCC-2998 colon
HOP-62 NSCLC = system: HOP-62 NSCLC
OVCAR-8 ovarian = system: OVCAR-8 ovarian
M14 melanoma = system: M14 melanoma
786-0 renal = system: 786-0 renal
MALME-3M melanoma = system: MALME-3M melanoma
SF-295 CNS = system: SF-295 CNS
SF-268 CNS = system: SF-268 CNS
OVCAR-3 ovarian = system: OVCAR-3 ovarian
SK-MEL-5 melanoma = system: SK-MEL-5 melanoma
UACC-62 melanoma = system: UACC-62 melanoma
A549 NSCLC = system: A549 NSCLC
MOLT-4 leukemia = system: MOLT-4 leukemia
NCI-H460 lung = system: NCI-H460 lung
SR leukemia = system: SR leukemia
NCI-H23 lung = system: NCI-H23 lung
HS 578T breast = system: HS 578T breast
U251 CNS = system: U251 CNS
ACHN renal = system: ACHN renal
HL-60(TB) leukemia = system: HL-60(TB) leukemia
LOX IMVI melanoma = system: LOX IMVI melanoma
HCT-116 colon = system: HCT-116 colon
SNB-75 CNS = system: SNB-75 CNS
SNB-19 CNS = system: SNB-19 CNS
MDA-MB-435 = system: MDA-MB-435
SW-620 colon = system: SW-620 colon
K-562 leukemia = system: K-562 leukemia
RXF 393 renal = system: RXF 393 renal
SK-MEL-2 melanoma = system: SK-MEL-2 melanoma
HT29 colon = system: HT29 colon
UACC-257 melanoma = system: UACC-257 melanoma
SN12C renal = system: SN12C renal
IGROV1 ovarian = system: IGROV1 ovarian
KM12 colon = system: KM12 colon
EKVX NSCLC = system: EKVX NSCLC
RPMI-8226 leukemia = system: RPMI-8226 leukemia
CAKI-1 renal = system: CAKI-1 renal
OVCAR-4 ovarian = system: OVCAR-4 ovarian
CCRF-CEM leukemia = system: CCRF-CEM leukemia
SF-539 CNS = system: SF-539 CNS
UO-31 renal = system: UO-31 renal
SK-MEL-28 melanoma = system: SK-MEL-28 melanoma
HCT-15 colon = system: HCT-15 colon
PC-3 prostate = system: PC-3 prostate
SK-OV-3 ovarian = system: SK-OV-3 ovarian
MCF7 breast = system: MCF7 breast
DU-145 prostate = system: DU-145 prostate
A498 renal = system: A498 renal
MDA-MB-231 breast = system: MDA-MB-231 breast
T-47D breast = system: T-47D breast
NCI-H522 lung = system: NCI-H522 lung
TK-10 renal = system: TK-10 renal
COLO 205 colon = system: COLO 205 colon
BT-549 breast = system: BT-549 breast
NCI-H226 lung = system: NCI-H226 lung
OVCAR-5 ovarian = system: OVCAR-5 ovarian

Which results are given for C#C[C@]1(O)CC[C@H]2[C@@H]3CC=C4c5sc(-c6ccc(C)cc6)nc5CC[C@]4(C)[C@H]3CC[C@@]21C?
GI50 (NCI/ADR-RES ovarian): > 100 µM; TGI (NCI/ADR-RES ovarian): > 100 µM; GI50 (HOP-92 NSCLC): 36.5 µM; TGI (HOP-92 NSCLC): > 100 µM; GI50 (HCC-2998 colon): > 100 µM; TGI (HCC-2998 colon): > 100 µM; GI50 (HOP-62 NSCLC): > 100 µM; TGI (HOP-62 NSCLC): > 100 µM; GI50 (OVCAR-8 ovarian): > 100 µM; TGI (OVCAR-8 ovarian): > 100 µM; GI50 (M14 melanoma): 30.6 µM; TGI (M14 melanoma): > 100 µM; GI50 (786-0 renal): 3.41 µM; TGI (786-0 renal): 61.6 µM; GI50 (MALME-3M melanoma): > 100 µM; TGI (MALME-3M melanoma): > 100 µM; GI50 (SF-295 CNS): 2.69 µM; TGI (SF-295 CNS): > 100 µM; GI50 (SF-268 CNS): > 100 µM; TGI (SF-268 CNS): > 100 µM; GI50 (OVCAR-3 ovarian): > 100 µM; TGI (OVCAR-3 ovarian): > 100 µM; GI50 (SK-MEL-5 melanoma): > 100 µM; TGI (SK-MEL-5 melanoma): > 100 µM; GI50 (UACC-62 melanoma): > 100 µM; TGI (UACC-62 melanoma): > 100 µM; GI50 (A549 NSCLC): 95.5 µM; TGI (A549 NSCLC): > 100 µM; GI50 (MOLT-4 leukemia): 45.2 µM; TGI (MOLT-4 leukemia): > 100 µM; GI50 (NCI-H460 lung): > 100 µM; TGI (NCI-H460 lung): > 100 µM; GI50 (SR leukemia): > 100 µM; TGI (SR leukemia): > 100 µM; GI50 (NCI-H23 lung): > 100 µM; TGI (NCI-H23 lung): > 100 µM; GI50 (HS 578T breast): 4.17 µM; TGI (HS 578T breast): > 100 µM; GI50 (U251 CNS): 61 µM; TGI (U251 CNS): > 100 µM; GI50 (ACHN renal): > 100 µM; TGI (ACHN renal): > 100 µM; GI50 (HL-60(TB) leukemia): 35.6 µM; TGI (HL-60(TB) leukemia): > 100 µM; GI50 (LOX IMVI melanoma): > 100 µM; TGI (LOX IMVI melanoma): > 100 µM; GI50 (HCT-116 colon): 18.3 µM; TGI (HCT-116 colon): > 100 µM; GI50 (SNB-75 CNS): 6.29 µM; TGI (SNB-75 CNS): > 100 µM; GI50 (SNB-19 CNS): > 100 µM; TGI (SNB-19 CNS): > 100 µM; GI50 (MDA-MB-435): > 100 µM; TGI (MDA-MB-435): > 100 µM; GI50 (SW-620 colon): > 100 µM; TGI (SW-620 colon): > 100 µM; GI50 (K-562 leukemia): 9.35 µM; TGI (K-562 leukemia): > 100 µM; GI50 (RXF 393 renal): 4.29 µM; TGI (RXF 393 renal): > 100 µM; GI50 (SK-MEL-2 melanoma): > 100 µM; TGI (SK-MEL-2 melanoma): > 100 µM; GI50 (HT29 colon): 24.5 µM; TGI (HT29 colon): > 100 µM; GI50 (UACC-257 melanoma): > 100 µM; TGI (UACC-257 melanoma): > 100 µM; GI50 (SN12C renal): > 100 µM; TGI (SN12C renal): > 100 µM; GI50 (IGROV1 ovarian): > 100 µM; TGI (IGROV1 ovarian): > 100 µM; GI50 (KM12 colon): > 100 µM; TGI (KM12 colon): > 100 µM; GI50 (EKVX NSCLC): > 100 µM; TGI (EKVX NSCLC): > 100 µM; GI50 (RPMI-8226 leukemia): 1.91 µM; TGI (RPMI-8226 leukemia): > 100 µM; GI50 (CAKI-1 renal): 60.9 µM; TGI (CAKI-1 renal): > 100 µM; GI50 (OVCAR-4 ovarian): > 100 µM; TGI (OVCAR-4 ovarian): > 100 µM; GI50 (CCRF-CEM leukemia): > 100 µM; TGI (CCRF-CEM leukemia): > 100 µM; GI50 (SF-539 CNS): 2.31 µM; TGI (SF-539 CNS): > 100 µM; GI50 (UO-31 renal): 28.9 µM; TGI (UO-31 renal): > 100 µM; GI50 (SK-MEL-28 melanoma): > 100 µM; TGI (SK-MEL-28 melanoma): > 100 µM; GI50 (HCT-15 colon): 12.8 µM; TGI (HCT-15 colon): > 100 µM; GI50 (PC-3 prostate): 26.2 µM; TGI (PC-3 prostate): > 100 µM; GI50 (SK-OV-3 ovarian): > 100 µM; TGI (SK-OV-3 ovarian): > 100 µM; GI50 (MCF7 breast): 46.8 µM; TGI (MCF7 breast): > 100 µM; GI50 (DU-145 prostate): > 100 µM; TGI (DU-145 prostate): > 100 µM; GI50 (A498 renal): > 100 µM; TGI (A498 renal): > 100 µM; GI50 (MDA-MB-231 breast): > 100 µM; TGI (MDA-MB-231 breast): > 100 µM; GI50 (T-47D breast): 93.7 µM; TGI (T-47D breast): > 100 µM; GI50 (NCI-H522 lung): > 100 µM; TGI (NCI-H522 lung): > 100 µM; GI50 (TK-10 renal): > 100 µM; TGI (TK-10 renal): > 100 µM; GI50 (COLO 205 colon): > 100 µM; TGI (COLO 205 colon): > 100 µM; GI50 (BT-549 breast): 25.9 µM; TGI (BT-549 breast): > 100 µM; GI50 (NCI-H226 lung): > 100 µM; TGI (NCI-H226 lung): > 100 µM; GI50 (OVCAR-5 ovarian): > 100 µM; TGI (OVCAR-5 ovarian): > 100 µM
